pIC50: −log10 of the molar value. “Also recorded” adds a separate entry of the source. Square brackets hold non-standard residues; d marks the D form. Peptide text beside a SMILES is read from it. Phe(4-guanidino) = N=C(N)Nc1ccc(C[C@H](N)C(=O)O)cc1

The test system of assay [1] is Lactate Dehydrogenase A [LDHA]. Put plainly: LDH activity assay on lysates of treated NCI-H460 cells (Abcam ab102526). Format: cell-based, human. The conditions noted are these: NCI-H460 cells treated 24 h or 96 h, normalised to protein; read-out: IC50 for inhibiting the activity of LDH. The method, then: An LDH activity assay was conducted on samples derived from NCI-H460 cells treated with 2 test compounds (HILR-025 and HILR-030) for either 24h or 96h. […] Therefore a BCA assay was conducted to estimate the total amount of protein present in each LDH assay lysate and this was used to normalise the enzyme activity data. As an indication of cell viability, an Alamar blue assay was also carried out at both timepoints, to serve as an additional point of reference.
2) Cells were harvested and seeded into 96-well plates at either 500 cells/well (for the 96h timepoint) or 5000 cells/well for the 24h timepoint. […] 6) At the end of the assay (24 or 96h), Alamar blue 10% (v/v) was added to one set of plates, incubated for a further 4 hours, and fluorescent product detected using the BMG FLUOstar plate reader. […] 10) LDH activity was measured in the cleared lysates using an LDH activity kit (Abcam, ab102526). 11) After preparation of the LDH activity assay reactions, according to the manufacturer's instructions, absorbance at 450 nm was measured at the initial time to determine (A450)initial 12) Further absorbance readings were taken at 3 minute intervals for up to 15 minutes. […] 16) The LDH activity of each sample was determined by the following equation:
[formula] […] Protein content in remaining cleared lysates was determined using a BCA assay (ThermoScientific). • b. Data were analysed using GraphPad Prism. […]

Assay [2] concerns NCI-H460 cells. The conditions noted are these: NCI-H460, 96 hours with compound, alamarBlue. Background: The colour change of resazurin is a common sign of viable cells or microbes.
Experimental: Methods measuring cell viability include the use of alamarBlue® cell viability reagent (Life Technologies, Inc.) (resazurin) with fluorescence detection.
1) NCI-H460 cells were grown in Ham's F12 media supplemented with 10% FBS. 2) Cells were harvested and seeded into 96-well plates at 500 cells/well. 3) Compounds were made up from stock solutions and added directly to cells in doubling dilutions starting at 200 μM. Final DMSO concentration was 0.2%. 4) Cells were grown with compound for 96 hours at 37° C. 5% CO2 in a humidified atmosphere. 5) A resazurin dye composition (AlamarBlue® cell viability reagent (Life Technologies, Inc.)) 10% (v/v) was then added and incubated for a further 4 hours, and fluorescent product detected using the BMG FLUOstar plate reader. 6) Media only background readings were subtracted before data were analysed using a 4-parameter logistic equation in GraphPad Prism.
The target in assay [3] is T1, recombinant human caspase 3 (Homo sapiens, UniProt P42574).
T1 construct: purchased Enzo Life Sciences BML-SE169-5000
T1 sequence (P42574 29-175 limits assumed): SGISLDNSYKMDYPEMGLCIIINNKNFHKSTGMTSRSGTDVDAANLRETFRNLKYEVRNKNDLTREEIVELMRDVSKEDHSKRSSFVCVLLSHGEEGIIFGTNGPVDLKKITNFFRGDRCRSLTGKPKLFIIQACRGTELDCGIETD
T1 sequence (P42574 176-277 limits assumed): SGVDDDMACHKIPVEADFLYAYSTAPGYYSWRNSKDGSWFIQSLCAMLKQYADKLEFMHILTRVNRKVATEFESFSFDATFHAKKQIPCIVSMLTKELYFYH
As to the kind of experiment: Apo-ONE Homogeneous Caspase-3/7 assay with recombinant caspase-3. Format: biochemical. Particulars: 0.1 or 0.3 U enzyme.
Text: DEVD-CHO was used as a positive control.
The Promega kit consists of a buffer that supports caspase 3/7 enzymatic activity and the caspase-3/7 substrate rhodamine 110, bis-(N-CBZL-aspartyl-L-glutamyl-L-valyl-L-aspartic acid amide; Z-DEVD-R110) Z-DEVD-R110 exists as a pro-fluorescent substrate prior to the assay;
upon sequential cleavage and removal of the DEVD peptides by caspase-3/7 activity and excitation at 499 nm, the rhodamine 110 leaving group becomes fluorescent. The amount of fluorescent product generated is reported to be proportional to the amount of caspase-3/7 cleavage that occurs in the sample.
In all subsequent experiments, 0.1 U enzyme was used and plate reader settings were adjusted to read every 5 min for 2h.
The DEVD-CHO control or HILR-030 were co-incubated for 2 hours with substrate or human recombinant caspase-3 according to the protocol in the table below.

The test system of assay [4] is NCI-H460 cells. Put plainly: HILR-001 with or without 30 nM Olaparib on NCI-H460, alamarBlue and CellTiter-Glo time course. In kind it is cell-based, human. The method, then: At each time point cell viability was measured by two assay readouts, alamarBlue® and CellTiter-Glo. Conversion of alamarBlue® to a fluorescent product serves as a readout of the metabolic activity of cells, whereas CellTiter-Glo is based on quantification of the ATP present.
2) Cells were harvested and seeded into 96-well plates at 500 cells/well. 3) HILR-001 was made up from a 10 mM stock solution and added directly to cells in doubling dilutions starting at 200 μM. […] The total final DMSO concentration was 0.25%. 4) Cells were grown with compound for 24, 48, 72 or 96 hours at 37° C. 5% CO2 in a humidified atmosphere. 5) AlamarBlue® 10% (v/v) was then added and incubated for a further 4 hours, and fluorescent product detected using the BMG FLUOstar plate reader. 6) On duplicate plates the media was removed from the cells, CellTiter-Glo was diluted in PBS (1:10) and 100 μl added to the cells. 7) Plates were mixed on an orbital shaker for 2 minutes and incubated for a further 10 minutes at room temperature. Luminescent signal was then measured using the BMG FLUOstar plate reader.

For assay [5], the system named is NCI-H460 human non-small cell cancer. Put plainly: In vitro cytotoxicity of Olaparib on NCI-H460, alamarBlue, 96 h. Format: cell-based. The conditions noted are these: 30 nM Olaparib. Here is the method: 2) Cells were harvested and seeded into 96-well plates at 500 cells/well. […] Final DMSO concentration was 0.3%. 4) Cells were grown with compound for 96 hours at 37° C. 5% CO2 in a humidified atmosphere. 5) AlamarBlue® cell viability reagent (Life Technologies, Inc.) 10% (v/v) was then added and incubated for a further 4 hours, and fluorescent product detected using the BMG FLUOstar plate reader. 6) Data were analysed using a 4-parameter logistic equation in GraphPad Prism.

[6] abbreviates: 30 nM Olaparib co-incubated with 50 μM HILR-001.

What is called pIC50 is the IC50 on a negative log10 scale, so that one unit is a factor of ten. In the case of `CC(C)[C@@H]1NC(=O)[C@@H]2CCCN2C(=O)[C@H](CCCNC(=N)N)NC(=O)[C@@H]2CCCN2C(=O)CNC(=O)[C@H](CCCNC(=N)N)NC(=O)[C@@H]2CCCN2C(=O)[C@H](Cc2c[nH]c3ccccc23)NC(=O)[C@H](Cc2c[nH]c3ccccc23)NC(=O)[C@H](Cc2ccc(NC(=N)N)cc2)NC(=O)[C@H](Cc2ccc(NC(=N)N)cc2)NC(=O)[C@H](Cc2c[nH]c3ccccc23)NC(=O)[C@H](Cc2c[nH]c3ccccc23)NC(=O)[C@H](Cc2ccc(NC(=N)N)cc2)NC(=O)[C@H](Cc2ccc(NC(=N)N)cc2)NC(=O)[C@H](Cc2c[nH]c3ccccc23)NC(=O)[C@H](Cc2c[nH]c3ccccc23)NC1=O` [HILR-030] (cyclo(PRGPRPVWW[Phe(4-guanidino)][Phe(4-guanidino)]WW[Phe(4-guanidino)][Phe(4-guanidino)]WW)), the negative logarithm of the IC50 (pIC50) in assay [1] is 4.66; in assay [2], 5.22. Also, in assay [3], the caspase-3 activity result is “inhibited the caspase-3 activity in a dose-dependent fashion”.
For the compound `O=C(c1cc(Cc2n[nH]c(=O)c3ccccc23)ccc1F)N1CCN(C(=O)C2CC2)CC1` [Olaparib, 4-[3-(4-cyclopropanecarbonylpiperazine-1-carbonyl)-4-fluorobenzyl]-2H-phthalazin-1-one], in assay [4] (setting [6]), the “ATP levels (CellTiter-Glo)” value is reported as “partially reverses the HILR-001-induced fall in ATP; also recorded: partially restored ATP levels” and the “HILR-001-mediated cell death (alamarBlue)” value is listed as “reversed 50 μM HILR-001-mediated cell death”. The “ATP levels or cancer cell death” value in assay [4] (Olaparib with higher doses of HILR-001 (100 μM and 200 μM)) was “did not affect ATP levels or cancer cell death”. Further, the “toxicity to NCI-H460 cells” value in assay [5] was “non-toxic”.

The record behind these values is patent US20190046600A1, “COMPOSITIONS AND USES THEREOF” (priority 2016, published 2019).
